In patent US20240390340A1 (INCYTE CORPORATION, priority 2023, published 2024) one finds IC50 data, which are given here for 26 molecules.

Structures are written as SMILES. Like-named read-outs stand apart in the source and are kept apart here. Some results are limits rather than exact numbers.

One assay concerns the target KRAS G12D (Homo sapiens, UniProt P01116, G12D). Nature of the assay: GDP-GTP exchange assay (bodipy-GDP/GppNHp, SOS1), KRAS G12D. Type of assay: biochemical.
For another assay, the target named is KRAS G12V (Homo sapiens, UniProt P01116, G12V). Nature of the assay: GDP-GTP exchange assay (bodipy-GDP/GppNHp, SOS1), KRAS G12V. It is filed as biochemical.
Sequence of KRAS G12V (P01116 1-188 isoform P01116-2 G12V): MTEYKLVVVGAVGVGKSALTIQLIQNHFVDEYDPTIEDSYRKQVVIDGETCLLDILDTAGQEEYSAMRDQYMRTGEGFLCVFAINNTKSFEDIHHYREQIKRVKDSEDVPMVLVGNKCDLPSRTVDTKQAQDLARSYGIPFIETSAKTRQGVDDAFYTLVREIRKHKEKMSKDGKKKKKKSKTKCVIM
[1] abbreviates: bodipy-loaded KRAS G12D 2.5 nM, 4 h pre-incubation, value for the most potent isomer quoted for certain compounds, read-out: G12D (KRAS G12D exchange assay IC50).
[2] abbreviates: KRAS G12V mutant, value for the most potent isomer quoted for certain compounds, read-out: G12V (KRAS G12V exchange assay IC50).

Sequence of KRAS G12D (P01116 1-188 isoform P01116-2 G12D): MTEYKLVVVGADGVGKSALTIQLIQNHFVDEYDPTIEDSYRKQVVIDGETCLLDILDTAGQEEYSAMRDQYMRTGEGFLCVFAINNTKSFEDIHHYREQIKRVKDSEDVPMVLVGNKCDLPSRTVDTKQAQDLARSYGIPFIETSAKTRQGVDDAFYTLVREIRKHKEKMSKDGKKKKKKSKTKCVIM

As to `CCc1cnn([C@H]2C[C@H](c3cc4c(C)nc5c(F)c(-c6cccc(Cl)c6Cl)c(CCC#N)cc5c4n3[C@H]3[C@H]4CN[C@@H]3C4)N(C(=O)C3CC3)C2)c1` [Example 280], the IC50 at KRAS G12D (setting [1]) and on KRAS G12V (setting [2]) was not above 0.1 µM throughout.
Take `Cc1nc2c(F)c(-c3cccc(Cl)c3Cl)c(CCC#N)cc2c2c1cc([C@H]1C[C@H](Oc3ccc(N4CCOCC4)nc3)CN1C(=O)C1CC1)n2[C@H]1[C@H]2CN[C@@H]1C2` [Example 36, 3-(1-((1R,4R,5S)-2-Azabicyclo[2.1.1]hexan-5-yl)-2-((2R,4S)-1-(cyclopropanecarbonyl)-4-((6-morpholinopyridin-3-yl)oxy)pyrrolidin-2-yl)-7-(2,3-dichlorophenyl)-6-fluoro-4-methyl-1H-pyrrolo[3,2-c]quinolin-8-yl)propanenitrile]: the IC50 is not above 0.1 µM at KRAS G12D (Table H, column G12D, for compounds isolated as several atropisomers/diastereoisomers the value for the most potent isomer is quoted, read-out: KRAS G12D exchange assay IC50) and not above 0.1 µM at KRAS G12V (Table H, column G12V, for compounds isolated as several atropisomers/diastereoisomers the value for the most potent isomer is quoted, read-out: KRAS G12V exchange assay IC50).
As for `COc1cccc(CO[C@H]2C[C@H](c3cc4c(C)nc5c(F)c(-c6cccc(Cl)c6Cl)c(CCC#N)cc5c4n3[C@H]3[C@H]4CN[C@@H]3C4)N(C(=O)C3CC3)C2)c1F` [Example 154], the IC50 on KRAS G12D (setting [1]) and on KRAS G12V (setting [2]) was not above 0.1 µM throughout.
Regarding `Cc1ccnc(O[C@H]2C[C@H](c3cc4c([C@@H](C)O)nc5c(F)c(-c6cccc(Cl)c6Cl)c(CCC#N)cc5c4n3[C@H]3C4CNC3C4)N(C(=O)C3CC3)C2)c1` (stereo partly shown) [Example 424], the 50% inhibitory concentration (IC50) on KRAS G12D (setting [1]) and on KRAS G12V (setting [2]) was not above 0.1 µM throughout.
For `CC(O)c1nc2c(F)c(-c3cccc(Cl)c3Cl)c(CCC#N)cc2c2c1cc([C@H]1C[C@H](OCc3c(F)cccc3F)CN1C(=O)C1(C)CC1)n2[C@H]1[C@H]2CN[C@@H]1C2` (stereo partly shown) [Example 185], the IC50 at KRAS G12D (setting [1]) and on KRAS G12V (setting [2]) was not above 0.1 µM each time.
On to `Cc1nc2c(F)c(-c3cccc(Cl)c3Cl)c(CCC#N)cc2c2c1cc([C@H]1C[C@H](n3cc(C4CCOC4)nn3)CN1C(=O)C1CC1)n2[C@H]1C2CNC1C2` (stereo partly shown) [Example 181], for which the IC50 at KRAS G12D (setting [1]) and on KRAS G12V (setting [2]) was not above 0.1 µM each time.
On to `Cc1nc2c(F)c(-c3cccc(Cl)c3Cl)c(CCC#N)cc2c2c1cc([C@H]1C[C@H](n3nncc3Cc3ccccc3)CN1C(=O)C1CC1)n2[C@H]1[C@H]2CN[C@@H]1C2` [Example 160], for which the 50% inhibitory concentration (IC50) on KRAS G12D (setting [1]) is 0.1 to 1 µM; on KRAS G12V (setting [2]), not above 0.1 µM.
The matching figures for `Cc1nc2c(F)c(-c3cccc(Cl)c3Cl)c(CCC#N)cc2c2c1cc([C@H]1C[C@H](n3ccc(N)n3)CN1C(=O)C1CC1)n2[C@H]1[C@H]2CN[C@@H]1C2` [Example 319]: not above 0.1 µM and not above 0.1 µM.
The matching figures for `Cc1nc2c(F)c(-c3cccc(Cl)c3Cl)c(CCC#N)cc2c2c1cc([C@H]1C[C@H](OCc3c(F)cccc3C#N)CN1C(=O)C1CC1)n2[C@H]1[C@H]2CN[C@@H]1C2` [Example 126]: not above 0.1 µM and not above 0.1 µM.
With `Cc1nc2c(F)c(-c3cccc(Cl)c3Cl)c(CCC#N)cc2c2c1cc([C@H]1C[C@H](Oc3cccc(C(=O)N(C)C)c3)CN1C(=O)C1CC1)n2[C@H]1[C@H]2CN[C@@H]1C2` [Example 174], the IC50 on KRAS G12D (setting [1]) and at KRAS G12V (setting [2]) was not above 0.1 µM each time.
Consider `Cc1nc2c(F)c(-c3cccc(Cl)c3Cl)c(CCC#N)cc2c2c1cc([C@H]1C[C@H](n3cc(C4(C(C)(F)F)CC4)nn3)CN1C(=O)C1CC1)n2[C@H]1[C@H]2CN[C@@H]1C2` [Example 382], for which the IC50 on KRAS G12D (setting [1]) and on KRAS G12V (setting [2]) was not above 0.1 µM each time.
As to `Cc1nc2c(F)c(-c3cccc(Cl)c3Cl)c(CCC#N)cc2c2c1cc([C@H]1C[C@H](n3ccnn3)CN1C(=O)C1CC1)n2[C@H]1[C@H]2CN[C@@H]1C2` [Example 342], the IC50 on KRAS G12D (setting [1]) and at KRAS G12V (setting [2]) was not above 0.1 µM each time.
Take `Cc1nc2c(F)c(-c3cccc(Cl)c3Cl)c(CCC#N)cc2c2c1cc([C@H]1C[C@H](OCc3cn(C)nn3)CN1C(=O)C1CC1)n2[C@H]1[C@H]2CN[C@@H]1C2` [Example 100]: the IC50 at KRAS G12D (setting [1]) and on KRAS G12V (setting [2]) was not above 0.1 µM each time.
Regarding `Cc1nc2c(F)c(-c3cccc(Cl)c3Cl)c(CCC#N)cc2c2c1cc([C@H]1C[C@H](OCc3cccnc3)CN1C(=O)C1CC1)n2[C@H]1[C@H]2CN[C@@H]1C2` [Example 95], the IC50 at KRAS G12D (setting [1]) and on KRAS G12V (setting [2]) was not above 0.1 µM in each case.
As for `Cc1nc2c(F)c(-c3cccc(Cl)c3Cl)c(CCC#N)cc2c2c1cc([C@H]1C[C@H](Oc3ccn(C(F)F)n3)CN1C(=O)C1CC1)n2[C@H]1[C@H]2CN[C@@H]1C2` [Example 340], the IC50 on KRAS G12D (setting [1]) and on KRAS G12V (setting [2]) was not above 0.1 µM throughout.
For the molecule `COC1CN(c2cc(O[C@H]3C[C@H](c4cc5c(C)nc6c(F)c(-c7cccc(Cl)c7Cl)c(CCC#N)cc6c5n4[C@H]4[C@H]5CN[C@@H]4C5)N(C(=O)C4CC4)C3)ccn2)C1` [Example 366], the IC50 on KRAS G12D (setting [1]) and at KRAS G12V (setting [2]) was not above 0.1 µM each time.
On to `N#CCCc1cc2c(nc(C3=CCS(=O)(=O)CC3)c3cc([C@H]4C[C@H](OCc5c(F)cccc5F)CN4C(=O)C4CC4)n([C@H]4[C@H]5CN[C@@H]4C5)c32)c(F)c1-c1cccc(Cl)c1Cl` [Example 240], for which the results for the IC50 at KRAS G12D (setting [1]) and at KRAS G12V (setting [2]) were 0.1 to 1 µM and not above 0.1 µM, respectively.
For `Cc1nc2c(F)c(-c3cccc(Cl)c3Cl)c(CCC#N)cc2c2c1cc([C@H]1C[C@H](OC[C@@H]3CCCO3)CN1C(=O)C1CC1)n2[C@H]1[C@H]2CN[C@@H]1C2` [Example 400] the same measures were not above 0.1 µM and not above 0.1 µM.
For `Cc1nc2c(F)c(-c3cccc(Cl)c3Cl)c(CCC#N)cc2c2c1cc([C@H]1C[C@H](O[C@@H](C)c3ccccn3)[C@@H](C)N1C(=O)C1CC1)n2[C@H]1[C@H]2CN[C@@H]1C2` [Example 245] the same measures were not above 0.1 µM and not above 0.1 µM.
Take `Cc1nc2c(F)c(-c3cccc(Cl)c3Cl)c(CCC#N)cc2c2c1cc([C@H]1C[C@H](OCc3cccc(F)c3C#N)CN1C(=O)C1CC1)n2[C@H]1[C@H]2CN[C@@H]1C2` [Example 156]: the IC50 on KRAS G12D (setting [1]) and on KRAS G12V (setting [2]) was not above 0.1 µM each time.
With `COC(=O)c1cccc(O[C@H]2C[C@H](c3cc4c(C)nc5c(F)c(-c6cccc(Cl)c6Cl)c(CCC#N)cc5c4n3[C@H]3[C@H]4CN[C@@H]3C4)N(C(=O)C3CC3)C2)c1` [Example 189], the IC50 at KRAS G12D (setting [1]) and on KRAS G12V (setting [2]) was not above 0.1 µM throughout.
Consider `Cc1ncccc1O[C@H]1C[C@H](c2cc3c(C)nc4c(F)c(-c5cccc(Cl)c5Cl)c(CCC#N)cc4c3n2[C@H]2[C@H]3CN[C@@H]2C3)N(C(=O)C2CC2)C1` [Example 129], for which the concentration for half-maximal inhibition (IC50) at KRAS G12D (setting [1]) and on KRAS G12V (setting [2]) was not above 0.1 µM in each case.
On to `Cc1nc2c(F)c(-c3cccc(Cl)c3Cl)c(CCC#N)cc2c2c1cc([C@H]1C[C@H](n3cc(C4(C)CC4)nn3)CN1C(=O)C1CC1)n2[C@H]1[C@H]2CN[C@@H]1C2` [Example 224], for which the IC50 at KRAS G12D (setting [1]) and on KRAS G12V (setting [2]) was not above 0.1 µM throughout.
`COc1nccc(C#N)c1O[C@H]1C[C@H](c2cc3c(C)nc4c(F)c(-c5cccc(Cl)c5Cl)c(CCC#N)cc4c3n2[C@H]2[C@H]3CN[C@@H]2C3)N(C(=O)C2CC2)C1` [Example 298]: the IC50 at KRAS G12D (setting [1]) and on KRAS G12V (setting [2]) was not above 0.1 µM each time.
Consider `Cc1nc2c(F)c(-c3cccc(Cl)c3Cl)c(CCC#N)cc2c2c1cc([C@H]1C[C@H](OCc3ccc(F)cc3)CN1C(=O)C1CC1)n2[C@H]1[C@H]2CN[C@@H]1C2` [Example 251], for which the IC50 at KRAS G12D (setting [1]) and at KRAS G12V (setting [2]) was not above 0.1 µM each time.
Regarding `COc1cc(F)cc(O[C@H]2C[C@H](c3cc4c(C)nc5c(F)c(-c6cccc(Cl)c6Cl)c(CCC#N)cc5c4n3[C@H]3[C@H]4CN[C@@H]3C4)N(C(=O)C3CC3)C2)c1` [Example 190], the 50% inhibitory concentration (IC50) at KRAS G12D (setting [1]) and on KRAS G12V (setting [2]) was not above 0.1 µM throughout.

A word on the IC50: it is the concentration that inhibits the measured activity by half.
